We go through 2 compounds from patent US20190328825A1, “METHODS FOR TREATING AUTISM SPECTRUM DISORDER AND ASSOCIATED SYMPTOMS” (Arizona Board of Regents on behalf of Arizona State …, priority 2015, published 2019).

Structures are written as SMILES.

For data set [1], the system named is children with ASD. In words: Toleration of study medications / adverse effects. The source says:
The participants were given oral vancomycin (a non-absorbable broad spectrum antibiotic that stays in the GI tract) for 2 weeks to reduce levels of pathogenic bacteria, and then 1 day of low-volume colonoscopy prep MoviPrep® (a drink that flushes the bowels, to remove most remaining gut bacteria and vancomycin) to clear the residual vancomycin and feces. The vancomycin was intended to kill off harmful bacteria, the fasting was intended to remove any remaining bacteria and to minimize other luminal fecal material, and the colon cleanse helped remove the vancomycin and cleanse the lower GI Tract.
The rectal dose was administered under the direct supervision of the study physician, and the first oral dose was similarly administered in the presence of the physician. Participants were randomly assigned to either the oral or rectal route of administration. If one administration route was not tolerated, or if the family preferred the other route, then participants had the option of trying the other route. For the participants with initial oral dose, a lower oral maintenance dose (2.5×10^9 CFU) was followed for 8 weeks right after the major oral initial dose. Whereas, the major rectal initial dose was followed by waiting period of 1 week followed by a lower oral maintenance dose (2.5×10^9 CFU) for 7 weeks. The maintenance SHGM dose were self-administered orally every day up to week 10. After treatment was stopped, participants were monitored for another 8 weeks.
Prilosec (omeprazole) was administered daily to reduce stomach acid and thereby increase viability of the MTT, starting on the 12th day of oral vancomycin treatment and continuing until the end of the maintenance dose.

Data set [2] has as its system children with ASD. In words: Complete Blood Count / blood chemistry panel. The data set is classed as in vivo, human. From the text:
The following minor changes were observed. There was a 5% decrease in potassium (p=0.01) from beginning to end of treatment, but all levels remain in the normal range. After the vancomycin (2nd week of study), there was a 8% increase in platelets (p=0.03). Four subjects had elevated levels at start, and only 2 had elevated levels after vancomycin. There was a 26% drop in blood urea nitrogen (BUN) (p=0.002), but all stayed in normal range. There was a 6% increase in albumin to globulin (A/G) ratio (p=0.03), with 1 slightly elevated. There was a 17% increase in aspartate amino transferase (AST) (p=0.01), but all remained in normal range. There was a 24% increase in alanine amino transferase (ALT) (p=0.003), where 1 remained elevated and 2 became slightly elevated. […] Slight changes (1-2%) in red blood cell indices (Mean corpuscular volume (MCV), Mean corpuscular hemoglobin (MCH), Mean corpuscular hemoglobin concentration (MCHC), and Red cell distribution width (RDW)) were observed.

[3] abbreviates: human, in vivo, 40 mg/kg per day.

For `COc1ccc2[nH]c([S+]([O-])Cc3ncc(C)c(OC)c3C)nc2c1` (stereo not drawn) [Prilosec, omeprazole], the “toleration of study medication” value with children with ASD [1] (in vivo) is recorded as “generally well-tolerated”.
As for `CN[C@H](CC(C)C)C(=O)N[C@H]1C(=O)N[C@@H](CC(N)=O)C(=O)N[C@H]2C(=O)N[C@H]3C(=O)N[C@H](C(=O)N[C@H](C(=O)O)c4cc(O)cc(O)c4-c4cc3ccc4O)[C@H](O)c3ccc(c(Cl)c3)Oc3cc2cc(c3O[C@@H]2O[C@H](CO)[C@@H](O)[C@H](O)[C@H]2O[C@H]2C[C@](C)(N)[C@H](O)[C@H](C)O2)Oc2ccc(cc2Cl)[C@H]1O` [vancomycin], in the data set on children with ASD [1] (setting [3]), the “duration of behavioral reaction in most cases” value fell in the range of 1 to 3 days and the “onset of behavioral reaction after start of vancomycin” value is 1 to 4 days. Moreover, the “severity of behavioral symptoms” value in the data set with children with ASD [1] (hyperactivity, tantrumming/aggression) is on record as “mild to moderate”. In addition, in the data set on children with ASD [1] (longest case), the “duration of behavioral symptoms in 1 participant” value was 3 weeks. Moreover, the children developing rash result in the data set on children with ASD [1] (oral vancomycin with natural orange flavor, 18 children) was “One and one”. Moreover, the adverse effects overall entry with children with ASD [1] (primarily mild to moderate hyperactivity and tantrums/aggression) was “only temporary adverse effects”. Also, in the data set with children with ASD [1] (temporary, start of vancomycin), the “cases of increased hyperactivity” value was 7 and the “cases of increased tantrums/aggression” value was determined as 5. In the data set with children with ASD [2] (3rd and 4th tests), the “platelets, BUN, A/G, AST, ALT” value is on record as “returned to similar to baseline”. Moreover, in the data set with children with ASD [2] (after the vancomycin), the “increase in alanine amino transferase (ALT)” value was 24% and the “increase in albumin to globulin (A/G) ratio” value is 6%. The same compound displayed an increase in platelets in the data set on children with ASD [2] (after the vancomycin (2nd week of study)) of 8%. Also, the “increase in aspartate amino transferase (AST)” value with children with ASD [2] (after the vancomycin, all remained in normal range) was determined as 17%. In addition, in the data set with children with ASD [2] (after the vancomycin, all stayed in normal range), the “drop in blood urea nitrogen (BUN)” value came out at 26%.
